As usually defined, the EC50 is the concentration at which the effect is half-maximal.

Like-named read-outs stand apart in the source and are kept apart here.

Drawing on patent publication US9845310B2 (priority 2015, dated 2017), this text covers EC50 for 15 compounds.

For this test, the target named is APJ (Homo sapiens (Human), UniProt P35414). The test can be described thus: [35S]GTPγS binding assay on membranes from CHO cells stably expressing human APJ receptor. The format is biochemical. (In general: Binding of GTPγS marks nucleotide exchange on a G protein.)
Chain of APJ (P35414 whole entry): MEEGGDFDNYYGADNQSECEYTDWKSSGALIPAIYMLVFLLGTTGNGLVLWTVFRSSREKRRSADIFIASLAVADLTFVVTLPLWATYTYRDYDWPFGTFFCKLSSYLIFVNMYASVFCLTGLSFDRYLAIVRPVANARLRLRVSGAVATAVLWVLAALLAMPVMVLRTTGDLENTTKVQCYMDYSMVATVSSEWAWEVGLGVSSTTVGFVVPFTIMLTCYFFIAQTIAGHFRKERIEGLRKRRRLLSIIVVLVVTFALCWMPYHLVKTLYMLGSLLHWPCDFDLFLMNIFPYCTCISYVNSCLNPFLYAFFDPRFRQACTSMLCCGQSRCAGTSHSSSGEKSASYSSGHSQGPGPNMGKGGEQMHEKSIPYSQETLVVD

As for `COc1cccc(-c2nnc(NS(=O)(=O)C[C@H](OC)c3ccc(F)cn3)n2-c2c(OC)cccc2OC)n1` (mixture of isomers) [Example 328.0, (2R)-N-(4-(2,6-dimethoxyphenyl)-5-(6-methoxy-2-pyridinyl)-4H-1,2,4-triazol-3-yl)-2-(5-fluoro-2-pyridinyl)-2-methoxyethanesulfonamide and (2S)-N-(4-(2,6-dimethoxyphenyl)-5-(6-methoxy-2-pyridinyl)-4H-1,2,4-triazol-3-yl)-2-(5-fluoro-2-pyridinyl)-2-methoxyethanesulfonamide], the EC50 (Activity hAPJ SPA EC50 IP (μM)) turned out to be 0.00033 µM.

For the compound `COc1cccc(-c2nnc(NS(=O)(=O)C[C@H](O)c3ccc(C#N)cn3)n2-c2c(OC)cccc2OC)n1` (mixture of isomers) [Example 331.0, (R)-2-(5-cyanopyridin-2-yl)-N-(4-(2,6-dimethoxyphenyl)-5-(6-methoxypyridin-2-yl)-4H-1,2,4-triazol-3-yl)-2-hydroxyethanesulfonamide and (S)-2-(5-cyanopyridin-2-yl)-N-(4-(2,6-dimethoxyphenyl)-5-(6-methoxypyridin-2-yl)-4H-1,2,4-triazol-3-yl)-2-hydroxyethanesulfonamide], for the setting “Activity hAPJ SPA EC50 IP (μM)”, the EC50 was determined as 0.00024 µM.

With `COc1cccc(-c2nnc(NS(=O)(=O)[C@H](C)[C@@H](O)C3CC3)n2-c2c(OC)cccc2OC)n1` (mixture of isomers) [Example 438.0], for the setting “Activity hAPJ SPA EC50 IP (μM)”, the EC50 was determined as 0.052 µM.

In turn, `COc1cccc(OC)c1-n1c(NS(=O)(=O)C[C@H](O)c2ccc(Cl)cc2S(C)(=O)=O)nnc1-c1cncc(C)c1` (mixture of isomers) [Example 457.0, (2R)-2-(4-chloro-2-(methylsulfonyl)phenyl)-N-(4-(2,6-dimethoxyphenyl)-5-(5-methyl-3-pyridinyl)-4H-1,2,4-triazol-3-yl)-2-hydroxyethanesulfonamide and (2S)-2-(4-chloro-2-(methylsulfonyl)phenyl)-N-(4-(2,6-dimethoxyphenyl)-5-(5-methyl-3-pyridinyl)-4H-1,2,4-triazol-3-yl)-2-hydroxyethanesulfonamide] returned an EC50 (Activity hAPJ SPA EC50 IP (μM)) of 0.0003 µM.

As to `COc1cccc(-c2nnc(NS(=O)(=O)[C@@H](C)[C@H](OC)c3ccc(C#N)cc3C#N)n2-c2c(OC)cccc2OC)n1` (mixture of isomers) [Example 473.0], where the note is “read-out: Activity hAPJ SPA EC50 IP”, the EC50 was 0.00023 µM.

As for `COc1cccc(-c2nnc(NS(=O)(=O)C[C@H](O)c3ccc(C#N)cc3S(C)(=O)=O)n2-c2c(OC)cccc2OC)n1` (mixture of isomers) [Example 481.0, (2S)-2-(4-cyano-2-(methylsulfonyl)phenyl)-N-(4-(2,6-dimethoxyphenyl)-5-(6-methoxy-2-pyridinyl)-4H-1,2,4-triazol-3-yl)-2-hydroxyethanesulfonamide and (2R)-2-(4-cyano-2-(methylsulfonyl)phenyl)-N-(4-(2,6-dimethoxyphenyl)-5-(6-methoxy-2-pyridinyl)-4H-1,2,4-triazol-3-yl)-2-hydroxyethanesulfonamide], a half-maximal effect (Activity hAPJ SPA EC50 IP (μM)) (EC50) was put at 0.00024 µM.

For `COc1cccc(-c2nnc(NS(=O)(=O)C[C@H](OC)c3ccc(C#N)cc3S(C)(=O)=O)n2-c2c(OC)cccc2OC)n1` (mixture of isomers) [Example 484.0, (2R)-2-(4-cyano-2-(methylsulfonyl)phenyl)-N-(4-(2,6-dimethoxyphenyl)-5-(6-methoxy-2-pyridinyl)-4H-1,2,4-triazol-3-yl)-2-methoxyethanesulfonamide and (2S)-2-(4-cyano-2-(methylsulfonyl)phenyl)-N-(4-(2,6-dimethoxyphenyl)-5-(6-methoxy-2-pyridinyl)-4H-1,2,4-triazol-3-yl)-2-methoxyethanesulfonamide], where the note is “Activity hAPJ SPA EC50 IP (μM)”, the EC50 amounted to 0.00026 µM.

With `COc1cccc(OC)c1-n1c(NS(=O)(=O)[C@@H](C)[C@H](OC)c2ccc(Cl)cn2)nnc1-c1cccnc1` (mixture of isomers) [Example 529.0, (1S,2R)-1-(5-chloro-2-pyridinyl)-N-(4-(2,6-dimethoxyphenyl)-5-(3-pyridinyl)-4H-1,2,4-triazol-3-yl)-1-methoxy-2-propanesulfonamide and (1R,2S)-1-(5-chloro-2-pyridinyl)-N-(4-(2,6-dimethoxyphenyl)-5-(3-pyridinyl)-4H-1,2,4-triazol-3-yl)-1-methoxy-2-propanesulfonamide], where the note is “Activity hAPJ SPA EC50 IP (μM)”, the midpoint of the response, the EC50, lay at 0.00048 µM.

For `COc1cnc([C@H](O)[C@@H](C)S(=O)(=O)Nc2nnc(-c3cccnc3)n2-c2c(OC)cccc2OC)cn1` (mixture of isomers) [Example 703.0, (1R,2S)-N-(4-(2,6-dimethoxyphenyl)-5-(3-pyridinyl)-4H-1,2,4-triazol-3-yl)-1-hydroxy-1-(5-methoxy-2-pyrazinyl)-2-propanesulfonamide and (1S,2R)-N-(4-(2,6-dimethoxyphenyl)-5-(3-pyridinyl)-4H-1,2,4-triazol-3-yl)-1-hydroxy-1-(5-methoxy-2-pyrazinyl)-2-propanesulfonamide], for the setting “Activity hAPJ SPA EC50 IP (μM)”, the EC50 worked out at 0.002 µM.

The compound `COc1cccc(-c2nnc(NS(=O)(=O)[C@H](C)[C@@H](O)c3cc(C)n(C)n3)n2-c2c(OC)cccc2OC)n1` (racemic) [Example 260.0, (1S,2R)-N-(4-(2,6-dimethoxyphenyl)-5-(6-methoxypyridin-2-yl)-4H-1,2,4-triazol-3-yl)-1-(1,5-dimethyl-1H-pyrazol-3-yl)-1-hydroxypropane-2-sulfonamide and (1R,2S)-N-(4-(2,6-dimethoxyphenyl)-5-(6-methoxypyridin-2-yl)-4H-1,2,4-triazol-3-yl)-1-(1,5-dimethyl-1H-pyrazol-3-yl)-1-hydroxypropane-2-sulfonamide] came in with a 50% effective concentration (EC50) (Activity hAPJ SPA EC50 IP (μM)) of 0.0024 µM.

Take `COc1cccc(-c2nnc(NS(=O)(=O)[C@@H](C)[C@H](C)c3ncc(F)cn3)n2-c2cn(C)c3ccccc23)n1` (racemic) [Example 451.0, (2S,3R)-3-(5-fluoro-2-pyrimidinyl)-N-(5-(6-methoxy-2-pyridinyl)-4-(1-methyl-1H-indol-3-yl)-4H-1,2,4-triazol-3-yl)-2-butanesulfonamide and (2R,3S)-3-(5-fluoro-2-pyrimidinyl)-N-(5-(6-methoxy-2-pyridinyl)-4-(1-methyl-1H-indol-3-yl)-4H-1,2,4-triazol-3-yl)-2-butanesulfonamide]: the EC50 (Activity hAPJ SPA EC50 IP (μM)) was 0.045 µM.

For the compound `CC#C[C@@H](O)[C@H](C)S(=O)(=O)Nc1nnc(-c2cncc(C)c2)n1-c1c(OC)cccc1OC` (racemic) [Example 764.0, (2R,3S)-N-(4-(2,6-dimethoxyphenyl)-5-(5-methyl-3-pyridinyl)-4H-1,2,4-triazol-3-yl)-3-hydroxy-4-hexyne-2-sulfonamide and (2S,3R)-N-(4-(2,6-dimethoxyphenyl)-5-(5-methyl-3-pyridinyl)-4H-1,2,4-triazol-3-yl)-3-hydroxy-4-hexyne-2-sulfonamide], the response (Activity hAPJ SPA EC50 IP (μM)) was half-maximal at 0.027 µM (EC50).

In turn, `COc1cccc(-c2nnc(NS(=O)(=O)[C@@H](C)[C@H](OC(C)C)c3ncc(C)cn3)n2-c2c(OC)cccc2OC)n1` (single isomer, unassigned) [Example 96.0] showed an EC50 (Activity hAPJ SPA EC50 IP (μM)) of 0.00026 µM.

`COc1cccc(-c2nnc(NS(=O)(=O)[C@H](C)[C@@H](OC(C)C)c3ncc(C)cn3)n2-c2c(OC)cccc2OC)n1` (single isomer, unassigned) [Example 97.0]: the EC50 (Activity hAPJ SPA EC50 IP (μM)) was determined as 0.002 µM.

Turning to `COc1cccc(-c2nnc(NS(=O)(=O)[C@H](C)[C@H](OC(C)C)c3ncc(C)cn3)n2-c2c(OC)cccc2OC)n1` (single isomer, unassigned) [Example 98.0], the EC50 (Activity hAPJ SPA EC50 IP (μM)) is 0.0099 µM.
